Experimental findings from patent US11866405B2, “Substituted indazoles as IRAK4 inhibitors” (AstraZeneca AB, priority 2020, dated 2024) are described below.

For assay [1], the target named is human recombinant IRAK4 protein (Homo sapiens (Human), UniProt Q9NWZ3). The assay can be described thus: IRAK4 enzyme assay (mass spectrometry readout). The assay is classed as biochemical. The note with it: 3 mM ATP, 0.2 nM enzyme; geometric mean of at least n=2, * single experiment. The procedure, abridged:
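0.2 nM IRAK4 preincubated 15 min at room temperature with compound (10-point half-log series, top 1 μM or 10 μM) in pH 7.4 Tris buffer with 3 mM ATP; 10 μM peptide substrate added, 2 h at room temperature, formic acid stop. Phospho/unphospho peptide ratio by LC-MS/MS; potency from curve fit, geometric mean of n≥2 or single run.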

For assay [2], the target named is IRAK4 auto-phosphorylation (Homo sapiens (Human), UniProt Q9NWZ3). The assay can be described thus: IRAK4 phosphorylation cell assay in IL-1β-stimulated Karpas-299 cells. It is filed as cell-based. The note with it: IL-1β 22.7 ng/mL, pIRAK4 (Thr345/Ser346), geometric mean of at least 2 experiments. The procedure, abridged: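 Karpas-299 cells were preincubated 1 h at 37 °C with compound (10-point half-log series, top 30 μM), then stimulated 10 min with 22.7 ng/mL IL-1β. Cells were fixed and stained for pIRAK4 (Thr345/Ser346), and per-cell fluorescence was quantified by high-content imaging. IC50 values are geometric means of at least 2 experiments.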
Sequence of IRAK4 auto-phosphorylation (Q9NWZ3 whole entry): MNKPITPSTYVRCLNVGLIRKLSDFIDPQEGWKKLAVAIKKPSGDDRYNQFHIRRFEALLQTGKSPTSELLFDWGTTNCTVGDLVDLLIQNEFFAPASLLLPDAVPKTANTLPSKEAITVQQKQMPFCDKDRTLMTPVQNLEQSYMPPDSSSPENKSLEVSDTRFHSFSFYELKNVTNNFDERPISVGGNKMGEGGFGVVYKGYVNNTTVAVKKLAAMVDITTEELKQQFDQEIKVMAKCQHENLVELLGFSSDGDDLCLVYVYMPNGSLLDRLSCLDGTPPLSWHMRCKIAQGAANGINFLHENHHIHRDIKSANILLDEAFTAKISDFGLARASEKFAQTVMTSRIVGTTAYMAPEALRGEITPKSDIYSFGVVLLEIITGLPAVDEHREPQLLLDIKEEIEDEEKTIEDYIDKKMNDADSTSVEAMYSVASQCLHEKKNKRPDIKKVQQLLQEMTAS

For assay [3], the system named is IL-1β stimulated IL-8 release in hTHP1 cells. The assay can be described thus: IL-1β-induced IL-8 release in human THP-1 monocyte cell line. It is filed as cell-based. The following applies: THP-1 cells, IL-1β 1.8 ng/mL. On the procedure: Effect of IRAK4 Inhibitors on IL-1β-Induced Cytokine Release in Human THP-1 Monocyte Cell Line
THP-1 cells were cultured in RPMI 1640 (Gibco 72400-021) containing 10% FBS (Gibco 10270-106), 1 mM Na-pyruvate (Gibco 11360-070) and 100 U/mL Penicillin-Streptomycin (Gibco 15140-122). Cells were plated at 5×10^4 cells per well in 384 well Echo certified plates (Labcyte PPT-0200) to which compounds had been added at various concentrations (10 point half log dose response with a final top concentration of 10 μM) using an Echo 655 (Labcyte Inc). The plate was incubated for 1 h at 37° C., then recombinant […] (R&D Systems 201-LB-025/CF) was added to a final concentration of 1.8 ng/mL. The plates were incubated at 37° C. for 18h. The plates were centrifuged at 250×g for four minutes, then 1.6 μL of the cell supernatant was transferred to a white low volume 384 well plate (Greiner #784075) using acoustic dispensing on an Echo 655. Next, 200 nL of acceptor bead (5 mg/mL) and biotinylated anti-IL-8 antibody (500 nM) was added using acoustic dispensing (beads and antibody were from a PerkinElmer 18 Alpha LISA detection kit, AL224C). The plate was sealed, briefly centrifuged, then incubated at room temperature for 1 h. Afterwards, 200 nL of donor bead solution (5 mg/mL) was added, the plate sealed and briefly centrifuged, then incubated for 1 h before being read on an Envision plate reader to allow determination the concentration of IRAK4 inhibitor required to effect a 50% reduction in the amount of IL-8 released following IL-1β stimulation in THP1 cells (Table 2). The quantified data were analysed in Genedata Screener 15 (Genedata AG). Data presented are the geometric mean of at least n=2, or as denoted by an * are obtained from a single experiment.

Where [4] appears, read: 18 h, geometric mean of at least n=2, * n = 1, read-out: hTHP1, IL1β stim, IL8 release red. IC50.
The mark [5] stands for this setting: Homo sapiens, THP-1, 18 h, geometric mean of at least n=2, * n = 1, read-out: hTHP1, IL1β stim, IL8 release red. IC50.

SMILES strings stand for the structures. Where two headings read alike, the source gives them in different places. Bounds are passed on as bounds.

Sequence of human recombinant IRAK4 protein (Q9NWZ3 whole entry): as above

With `COc1cc2nn([C@@H]3CCC4(C[C@H]3C)CN(C(C)=O)C4)cc2cc1C(=O)Nc1cnc2cccnn12` (single isomer, unassigned) [Example 66], the IC50 – broadly, the concentration at which inhibition is half-maximal – in assay [1] is under 0.5 nM; in assay [2], 23 nM; in assay [3] (setting [4]), 18 nM.
With `CC(=O)N1CC2(CC[C@@H](n3cc4cc(C(=O)Nc5cnn6cccnc56)c(OC5CC5)cc4n3)[C@@H](C)C2)C1` (single isomer, unassigned) [Example 31], the IC50 in assay [1] was 0.8 nM; in assay [2] it was 71 nM; in assay [3] (setting [4]), 32 nM.
With `COc1cc2nn([C@H]3CCC[C@@H](O)C3)cc2cc1C(=O)Nc1cnn2cccnc12` (single isomer, unassigned) [Example 13], the IC50 was 6.5 nM in assay [1], 816 nM in assay [2] and 59 nM in assay [3] (setting [5]).
For the molecule `COc1cc2nn([C@@H]3CCC4(C[C@@H]3C)CN(C(C)=O)C4)cc2cc1C(=O)Nc1cnc2cccnn12` (single isomer, unassigned) [Example 64], the IC50 in assay [1] was under 0.5 nM; in assay [2] it was 38 nM; in assay [3] (setting [4]), 18 nM.
For `COc1cc2nn([C@H]3CC[C@H](O)C[C@@H]3C)cc2cc1C(=O)Nc1cnn2cccnc12` (single isomer, unassigned) [Example 38], the IC50 was found to be 4.6 nM in assay [1], 186 nM in assay [2] and 31 nM in assay [3] (setting [5]).
Take `COc1cc2nn([C@H]3CC[C@H](O)[C@H](C)C3)cc2cc1C(=O)Nc1cnc2cccnn12` (single isomer, unassigned) [Example 79]: the IC50 in assay [1] was 1 nM; in assay [2] it was 21 nM.
For `COc1cc2nn([C@H]3CCC[C@@H](O)[C@H]3C)cc2cc1C(=O)Nc1cnc2cccnn12` (single isomer, unassigned) [Example 104] the same measures were 1.1 nM and 25 nM.
For `O=C(Nc1cnn2cccnc12)c1cc2cn(C3CCC4(CC3)CC(O)C4)nc2cc1OC1CC1` (single isomer, unassigned) [Example 47, 6-Cyclopropoxy-2-(2-hydroxyspiro[3.5]nonan-7-yl)-N-(pyrazolo[1,5-a]pyrimidin-3-yl)-2H-indazole-5-carboxamide], in that order: 0.5 nM and 64 nM.
For `COc1cc2nn([C@H]3CC[C@@H](O)C[C@@H]3C)cc2cc1C(=O)Nc1cnn2cccnc12` (relative stereo) [Example 41], in that order: 14.3 nM and 331 nM.
With `COc1cc2nn([C@H]3CCC[C@@H](O)[C@@H]3C)cc2cc1C(=O)Nc1cnc2cccnn12` (single isomer, unassigned) [Example 109], the results for the IC50 in assay [1] and in assay [2] were 0.6 nM and 15 nM, respectively.
For `COc1cc2nn([C@@H]3CC[C@]4(CC(=O)N(C)C4)C[C@H]3C)cc2cc1C(=O)Nc1cnc2cccnn12` (relative stereo) [Example 73, rel-2-(5R,7R,8R)-2,7-Dimethyl-3-oxo-2-azaspiro[4.5]decan-8-yl)-N-(imidazo[1,2-b]pyridazin-3-yl)-6-methoxy-2H-indazole-5-carboxamide or rel-2-(5R,7S,8S)-2,7-Dimethyl-3-oxo-2-azaspiro[4.5]decan-8-yl)-N-(imidazo[1,2-b]pyridazin-3-yl)-6-methoxy-2H-indazole-5-carboxamide], in that order: 3.2 nM and 57 nM.
For `O=C(Nc1cnc2cccnn12)c1cc2cn([C@H]3CC[C@H](O)CC3)nc2cc1OC1CC1` [Example 84, 6-Cyclopropoxy-2-((1r,4r)-4-hydroxycyclohexyl)-N-(imidazo[1,2-b]pyridazin-3-yl)-2H-indazole-5-carboxamide] the same measures were 0.4 nM and 40 nM.
For `COc1cc2nn([C@H]3CC[C@H](N(C)C(=O)C4CC4)CC3)cc2cc1C(=O)Nc1cnn2cnccc12` [Example 96, 6-Methoxy-2-((1r,4r)-4-(N-methylcyclopropanecarboxamido)cyclohexyl)-N-(pyrazolo[1,5-c]pyrimidin-3-yl)-2H-indazole-5-carboxamide] the same measures were 0.5 nM and 15 nM.
As for `COc1cc2nn([C@H]3CC[C@]4(CCC(=O)N4C)CC3)cc2cc1C(=O)Nc1cnc2cccnn12` [Example 2, N-(Imidazo[1,2-b]pyridazin-3-yl)-6-methoxy-2-((5s,8s)-1-methyl-2-oxo-1-azaspiro[4.5]decan-8-yl)-2H-indazole-5-carboxamide], the IC50 amounted to 3.4 nM in assay [1] and 124 nM in assay [2].
For `COc1cc2nn([C@H]3CC[C@H](N(C)C(=O)C(C)(C)O)CC3)cc2cc1C(=O)Nc1cnn2cnccc12` [Example 99, 2-((1r,4r)-4-(2-Hydroxy-N,2-dimethylpropanamido)cyclohexyl)-6-methoxy-N-(pyrazolo[1,5-c]pyrimidin-3-yl)-2H-indazole-5-carboxamide], in that order: 1.2 nM and 35 nM.
Consider `C[C@H]1C[C@H](O)CC[C@@H]1n1cc2cc(C(=O)Nc3cnn4cccnc34)c(OC3CC3)cc2n1` (relative stereo) [Example 43, rel-6-Cyclopropoxy-2-(1S,2S,4R)-4-hydroxy-2-methylcyclohexyl)-N-(pyrazolo[1,5-a]pyrimidin-3-yl)-2H-indazole-5-carboxamide], for which the results for the IC50 in assay [1] and in assay [2] were 1.8 nM and 101 nM, respectively.
For `COc1cc2nn([C@H]3CC[C@H](N(C)C(=O)[C@@H]4CC[C@H](O)C4)CC3)cc2cc1C(=O)Nc1cnn2cccnc12` (relative stereo) [Example 114] the same measures were 0.7 nM and 16 nM.
For `COc1cc2nn([C@H]3CC[C@H](O)[C@H](C)C3)cc2cc1C(=O)Nc1cnc2cccnn12` (single isomer, unassigned) [Example 78] the same measures were 2.5 nM and 52 nM.
For `COc1cc2nn([C@H]3CC[C@H](n4nccn4)CC3)cc2cc1C(=O)Nc1cnc2cccnn12` [Example 103, 2-((1r,4r)-4-(2H-1,2,3-triazol-2-yl)cyclohexyl)-N-(imidazo[1,2-b]pyridazin-3-yl)-6-methoxy-2H-indazole-5-carboxamide], in that order: 0.6 nM and 17 nM.
Regarding `O=C(Nc1cnn2cccnc12)c1cc2cn([C@H]3CC[C@@H](O)CC3)nc2cc1OC1CC1` [Example 56], the results for the IC50 in assay [1] and in assay [2] were 1.2 nM and 79 nM, respectively.
For `COc1cc2nn([C@H]3CCC(N(C)C(C)=O)C[C@@H]3C)cc2cc1C(=O)Nc1cnc2cccnn12` (single isomer, unassigned) [Example 35, N-(imidazo[1,2-b]pyridazin-3-yl)-6-methoxy-2-((1S,2S,4R*)-2-methyl-4-(N-methylacetamido)cyclohexyl)-2H-indazole-5-carboxamide] the same measures were 7.2 nM and 115 nM.
For `COc1cc2nn([C@@H]3CCC(N(C)C(C)=O)C[C@H]3C)cc2cc1C(=O)Nc1cnn2cccnc12` (single isomer, unassigned) [Example 61], the IC50 in assay [1] came out at 24.2 nM; in assay [2], 238 nM.
For `C[C@@]1(O)CCC[C@H](n2cc3cc(C(=O)Nc4cnn5cccnc45)c(OC4CC4)cc3n2)C1` (relative stereo) [Example 55, rel-6-cyclopropoxy-2-(1S,3R)-3-hydroxy-3-methylcyclohexyl)-N-(pyrazolo[1,5-a]pyrimidin-3-yl)-2H-indazole-5-carboxamide], the half-inhibitory concentration (IC50) in assay [1] came to 0.7 nM; in assay [2], 51 nM.
In the case of `CO[C@H]1C[C@@H](Oc2cc3nn(C4CCC5(CC4)CN(C(C)=O)C5)cc3cc2C(=O)Nc2cnc3cccnn23)C1` [Example 101, 2-(2-Acetyl-2-azaspiro[3.5]nonan-7-yl)-N-(imidazo[1,2-b]pyridazin-3-yl)-6-((1s,3s)-3-methoxycyclobutoxy)-2H-indazole-5-carboxamide], the figures for the IC50 in assay [1] and in assay [2] were under 0.4 nM and 31 nM, respectively.
